For the assay, the target named is T1, F508delCFTR cell surface expression in CFBE41o-F508delCFTR-HRP cells (Homo sapiens, UniProt P13569, DEL508-508).
T1 construct: fused on or other part: Horseradish peroxidase (HRP) reporter inserted in the fourth exofacial (extracellular) loop of CFTR; expression is doxycycline-inducible
Description: Cell Surface Expression-Horse Radish Peroxidase (CSE-HRP) Assay. The conditions noted are these: for EC50: CFBE41o-F508delCFTR-HRP cells, 18-24 hours at 33° C., 8-point curve, highest concentration 20 μM; for Maximum % activity (%): maximum at any tested concentration, normalized to on-plate positive control (3 μM). In kind it is cell-based. In short, it runs like this:
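Correctors incubated 18-24 h at 33 °C on doxycycline-induced (0.5 μg/mL, 72 h) CFBE41o-F508delCFTR-HRP cells, 3-fold series from 20 μM. After DPBS washes, luminol luminescence read; activity expressed relative to DMSO and a 3 μM positive control, EC50 fitted from triplicate plates.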

T1 sequence (P13569 with tags, fused parts or gaps DEL508-508 limits assumed): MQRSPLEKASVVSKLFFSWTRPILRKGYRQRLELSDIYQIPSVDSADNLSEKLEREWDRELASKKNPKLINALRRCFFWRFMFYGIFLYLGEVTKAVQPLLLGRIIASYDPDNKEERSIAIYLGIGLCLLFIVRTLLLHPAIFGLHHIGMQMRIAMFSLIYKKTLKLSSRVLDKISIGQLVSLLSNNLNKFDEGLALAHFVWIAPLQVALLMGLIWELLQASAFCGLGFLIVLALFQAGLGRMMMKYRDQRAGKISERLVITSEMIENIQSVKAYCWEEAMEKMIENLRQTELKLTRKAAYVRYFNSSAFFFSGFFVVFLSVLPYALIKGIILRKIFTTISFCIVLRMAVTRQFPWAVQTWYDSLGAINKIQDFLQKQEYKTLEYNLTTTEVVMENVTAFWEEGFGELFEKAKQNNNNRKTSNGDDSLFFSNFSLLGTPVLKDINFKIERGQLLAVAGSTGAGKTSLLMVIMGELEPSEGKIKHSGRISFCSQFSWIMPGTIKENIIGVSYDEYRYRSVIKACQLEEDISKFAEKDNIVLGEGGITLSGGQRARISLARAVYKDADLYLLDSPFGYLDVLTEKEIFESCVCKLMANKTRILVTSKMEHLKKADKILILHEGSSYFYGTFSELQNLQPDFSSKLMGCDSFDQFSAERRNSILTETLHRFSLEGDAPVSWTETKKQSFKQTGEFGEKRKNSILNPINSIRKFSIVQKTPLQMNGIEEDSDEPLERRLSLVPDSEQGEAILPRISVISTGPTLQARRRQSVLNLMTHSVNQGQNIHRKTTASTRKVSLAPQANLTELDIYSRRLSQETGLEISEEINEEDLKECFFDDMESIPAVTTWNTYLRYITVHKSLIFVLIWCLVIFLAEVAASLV
T1 sequence (P13569 919-1480 limits assumed, stated change not applied): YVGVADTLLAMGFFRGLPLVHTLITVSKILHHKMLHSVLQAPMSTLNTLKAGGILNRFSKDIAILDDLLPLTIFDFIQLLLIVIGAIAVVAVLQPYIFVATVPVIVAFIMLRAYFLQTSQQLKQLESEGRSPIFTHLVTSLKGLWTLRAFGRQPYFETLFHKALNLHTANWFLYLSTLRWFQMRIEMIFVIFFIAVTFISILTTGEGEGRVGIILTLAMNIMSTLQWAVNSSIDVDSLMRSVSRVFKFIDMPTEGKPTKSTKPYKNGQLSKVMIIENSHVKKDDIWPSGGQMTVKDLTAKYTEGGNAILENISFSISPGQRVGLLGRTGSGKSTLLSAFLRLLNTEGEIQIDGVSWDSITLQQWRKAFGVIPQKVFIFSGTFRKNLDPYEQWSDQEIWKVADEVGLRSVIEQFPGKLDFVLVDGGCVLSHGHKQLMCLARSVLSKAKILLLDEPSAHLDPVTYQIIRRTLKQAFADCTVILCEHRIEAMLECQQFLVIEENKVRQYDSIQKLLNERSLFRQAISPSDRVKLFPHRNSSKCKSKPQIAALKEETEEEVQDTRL

A word on the EC50: it is the concentration giving half of the maximal effect. A high value points to lower potency in that assay. With `CC1(C(=O)Nc2nnc(-c3ccc(C(=O)O)cc3)s2)COc2cc3c(cc21)OC(F)(F)O3` (stereo not drawn) [Example 53, 4-{5-[(2,2-difluoro-7-methyl-6,7-dihydro-2H-furo[2,3-f][1,3]benzodioxole-7-carbonyl)amino]-1,3,4-thiadiazol-2-yl}benzoic acid], the EC50 was more than 20000 nM and the “Maximum % activity (%)” value stood at 1%.
In the case of `COC(=O)c1ccc(-c2csc(NC(=O)C3(C)COc4cc5c(cc43)OC(F)(F)O5)n2)cc1` (stereo not drawn) [Example 64, methyl 4-{2-[(2,2-difluoro-7-methyl-6,7-dihydro-2H-furo[2,3-f][1,3]benzodioxole-7-carbonyl)amino]-1,3-thiazol-4-yl}benzoate], the EC50 was 7290 nM and the “Maximum % activity (%)” value is listed as 46%.
In the same order, the values of `C[C@@]1(C(=O)N[C@@H]2C[C@H]([C@H]3CC[C@H](C(=O)O)CC3)Oc3cc(OC(F)(F)F)ccc32)CCc2cc3c(cc21)OC(F)(F)O3` [Example 169, trans-4-[(2R,4R)-4-{[(5R)-2,2-difluoro-5-methyl-6,7-dihydro-2H,5H-indeno[5,6-d][1,3]dioxole-5-carbonyl]amino}-7-(trifluoromethoxy)-3,4-dihydro-2H-1-benzopyran-2-yl]cyclohexane-1-carboxylic acid] are 1260 nM and 107%.
In the case of `COc1ccc2c(c1)O[C@@H](c1cnc(CO)cn1)C[C@H]2NC(=O)[C@@]1(C)COc2cc3c(cc21)OC(F)(F)O3` [Example 173, (7R)-2,2-difluoro-N-{(2R,4R)-2-[5-(hydroxymethyl)pyrazin-2-yl]-7-methoxy-3,4-dihydro-2H-1-benzopyran-4-yl}-7-methyl-6,7-dihydro-2H-furo[2,3-f][1,3]benzodioxole-7-carboxamide], the EC50 amounted to 90 nM and the “Maximum % activity (%)” value was determined as 132%.
The matching figures for `COc1ccc2c(c1)O[C@@H](c1ccc(C(C)=O)cn1)C[C@H]2NC(=O)[C@@]1(C)COc2cc3c(cc21)OC(F)(F)O3` [Example 180, (7R)—N-[(2R,4R)-2-(5-acetylpyridin-2-yl)-7-methoxy-3,4-dihydro-2H-1-benzopyran-4-yl]-2,2-difluoro-7-methyl-6,7-dihydro-2H-furo[2,3-f][1,3]benzodioxole-7-carboxamide]: 20 nM and 124%.
The matching figures for `CC(C)(O)CNC(=O)[C@H]1CC[C@H]([C@H]2C[C@@H](NC(=O)[C@@]3(C)COc4cc5c(cc43)OC(F)(F)O5)c3ccc(OC(F)(F)F)cc3O2)CC1` [Example 267, (7R)-2,2-difluoro-N-[(2R,4R)-2-{trans-4-[(2-hydroxy-2-methylpropyl)carbamoyl]cyclohexyl}-7-(trifluoromethoxy)-3,4-dihydro-2H-1-benzopyran-4-yl]-7-methyl-6,7-dihydro-2H-furo[2,3-f][1,3]benzodioxole-7-carboxamide]: 90 nM and 166%.
Turning to `C[C@]1(C(=O)N[C@@H]2C[C@H](c3ccc(C(=O)O)cc3)Oc3ccccc32)CCc2cc3c(cc21)OC(F)(F)O3` [Example 59, 4-[(2R,4R)-4-{[(5S)-2,2-difluoro-5-methyl-6,7-dihydro-211,51-indeno[5,6-d][1,3]dioxole-5-carbonyl]amino}-3,4-dihydro-2H-1-benzopyran-2-yl]benzoic acid], the half-maximal effective concentration (EC50) was 2750 nM and the “Maximum % activity (%)” value came to 50%.
In the same order, the values of `COc1ccc2c(c1)O[C@@H](c1ccc(C(=O)NC3CCNC(=O)C3)cn1)C[C@H]2NC(=O)[C@@]1(C)COc2cc3c(cc21)OC(F)(F)O3` (stereo partly drawn) [Example 232, 6-[(2R,4R)-4-{[(7R)-2,2-difluoro-7-methyl-6,7-dihydro-2H-furo[2,3-f][1,3]benzodioxole-7-carbonyl]amino}-7-methoxy-3,4-dihydro-2H-1-benzopyran-2-yl]-N-(2-oxopiperidin-4-yl)pyridine-3-carboxamide] are 260 nM and 117%.
As for `COc1ccc2c(c1)O[C@@H](c1cnc(Cl)cn1)C[C@H]2NC(=O)[C@@]1(C)COc2cc3c(cc21)OC(F)(F)O3` [Example 193, (7R)—N-[(2R,4R)-2-(5-chloropyrazin-2-yl)-7-methoxy-3,4-dihydro-2H-1-benzopyran-4-yl]-2,2-difluoro-7-methyl-6,7-dihydro-2H-furo[2,3-f][1,3]benzodioxole-7-carboxamide], it took 180 nM to reach a half-maximal effect (EC50) and the “Maximum % activity (%)” value is recorded as 118%.
The matching figures for `Cc1ccc(NC(=O)[C@@]2(C)CCc3c2ccc2c3OCO2)cc1-c1cccc(C(=O)O)c1` (single isomer, unassigned) [Example 38]: 4560 nM and 22%.
Turning to `C[C@@]1(C(=O)N[C@@H]2C[C@H](c3ccc(C(=O)O)cc3)Oc3ccccc32)CCc2cc3c(cc21)OC(F)(F)O3` (single isomer, unassigned) [Example 58], the EC50 was determined as 420 nM and the “Maximum % activity (%)” value was 104%.
The matching figures for `COC(=O)C1CCN(c2cccc(NC(=O)C3(C)COc4cc5c(cc43)OC(F)(F)O5)n2)CC1` (stereo not drawn) [Example 70, methyl 1-{6-[(2,2-difluoro-7-methyl-6,7-dihydro-2H-furo[2,3-f][1,3]benzodioxole-7-carbonyl)amino]pyridin-2-yl}piperidine-4-carboxylate]: 1300 nM and 116%.
The matching figures for `C[C@]1(C(=O)Nc2cccc(N3CCC(S(C)(=O)=O)C3)n2)COc2cc3c(cc21)OC(F)(F)O3` (stereo partly drawn) [Example 109, (7R)-2,2-difluoro-N-{6-[3-(methanesulfonyl)pyrrolidin-1-yl]pyridin-2-yl}-7-methyl-6,7-dihydro-2H-furo[2,3-f][1,3]benzodioxole-7-carboxamide]: 580 nM and 89%.
In the same order, the values of `Cc1cc(NC(=O)[C@@]2(C)COc3cc4c(cc32)OC(F)(F)O4)nc(-c2cccc(C(=O)O)c2)c1` [Example 103, 3-(6-{[(7R)-2,2-difluoro-7-methyl-6,7-dihydro-2H-furo[2,3-f][1,3]benzodioxole-7-carbonyl]amino}-4-methylpyridin-2-yl)benzoic acid] are 1720 nM and 170%.
“(7R)—N-[5-(3R,4R)-dihydroxypyrrolidin-1-yl)pyrazin-2-yl]-2,2-difluoro-7-methyl-6,7-dihydro-2H-furo[2,3-f][1,3]benzodioxole-7-carboxamide and (7R)—N-[5-(3S,4S)-dihydroxypyrrolidin-1-yl)pyrazin-2-yl]-2,2-difluoro-7-methyl-6,7-dihydro-2H-furo[2,3-f][1,3]benzodioxole-7-carboxamide [Example 121]”: it took 11100 nM to reach a half-maximal effect (EC50) and the “Maximum % activity (%)” value stood at 23%.
In the same order, the values of `Cc1ccc(C(=O)O)cc1-c1cccc(NC(=O)[C@@]2(C)COc3cc4c(cc32)OC(F)(F)O4)n1` [Example 129, 3-(6-{[(7R)-2,2-difluoro-7-methyl-6,7-dihydro-2H-furo[2,3-f][1,3]benzodioxole-7-carbonyl]amino}pyridin-2-yl)-4-methylbenzoic acid] are 2260 nM and 129%.
Turning to `C[C@]1(C(=O)N[C@@H]2C[C@H](c3cccc(C(=O)O)c3)Oc3ccccc32)COc2cc3c(cc21)OC(F)(F)O3` [Example 22, 3-[(2R,4R)-4-{[(7R)-2,2-difluoro-7-methyl-6,7-dihydro-2H-furo[2,3-f][1,3]benzodioxole-7-carbonyl]amino}-3,4-dihydro-2H-1-benzopyran-2-yl]benzoic acid], the EC50 turned out to be 640 nM and the “Maximum % activity (%)” value is reported as 156%.
In the same order, the values of `C[C@]1(C(=O)Nc2cccc(-c3ccc(C(=O)O)cc3)n2)COc2cc3c(cc21)OC(F)(F)O3` [Example 81, 4-(6-{[(7R)-2,2-difluoro-7-methyl-6,7-dihydro-2H-furo[2,3-f][1,3]benzodioxole-7-carbonyl]amino}pyridin-2-yl)benzoic acid] are 1400 nM and 200%.
On to `CC1(C)OC[C@@H](Cn2nc(-c3ccccc3)cc(NC(=O)[C@@]3(C)COc4cc5c(cc43)OC(F)(F)O5)c2=O)O1` [Example 26, (7R)—N-(2-{[(4R)-2,2-dimethyl-1,3-dioxolan-4-yl]methyl}-3-oxo-6-phenyl-2,3-dihydropyridazin-4-yl)-2,2-difluoro-7-methyl-6,7-dihydro-2H-furo[2,3-f][1,3]benzodioxole-7-carboxamide], for which the EC50 was 980 nM and the “Maximum % activity (%)” value was found to be 85%.
The matching figures for `COc1ccc2c(c1)O[C@@H](c1ccc(C(=O)N(C)CC(O)c3ccccc3)cn1)C[C@H]2NC(=O)[C@@]1(C)COc2cc3c(cc21)OC(F)(F)O3` (stereo partly drawn) [Example 211, 6-[(2R,4R)-4-{[(7R)-2,2-difluoro-7-methyl-6,7-dihydro-2H-furo[2,3-f][1,3]benzodioxole-7-carbonyl]amino}-7-methoxy-3,4-dihydro-2H-1-benzopyran-2-yl]-N-(2-hydroxy-2-phenylethyl)-N-methylpyridine-3-carboxamide]: 30 nM and 124%.
For the compound `COc1ccc2c(c1)O[C@@H](c1ccc(C(=O)N(C)CCO)cn1)C[C@H]2NC(=O)[C@@]1(C)COc2cc3c(cc21)OC(F)(F)O3` [Example 234, 6-[(2R,4R)-4-{[(7R)-2,2-difluoro-7-methyl-6,7-dihydro-2H-furo[2,3-f][1,3]benzodioxole-7-carbonyl]amino}-7-methoxy-3,4-dihydro-2H-1-benzopyran-2-yl]-N-(2-hydroxyethyl)-N-methylpyridine-3-carboxamide], the 50% effective concentration (EC50) turned out to be 40 nM and the “Maximum % activity (%)” value worked out at 112%.

The values above are taken from patent US9840513B2 (AbbVie S.à.r.l., priority 2015, dated 2017).
